pIC50: −log10 of the molar value. A value given as a limit tells only on which side of the number the result lay.

This note sets out measurements from US9834548B2, “Pyridazine compounds as JAK inhibitors” (Portola Pharmaceuticals, Inc., priority 2014, dated 2017).

What all share (type): biochemical
The target in one assay is JAK1 (Homo sapiens (Human), UniProt P23458). Put plainly: Purified kinase assay (Z'-LYTE), JAK1. The conditions noted are these: Table 1; read-out: JAK1 IC50. Here is the method:
(§1) JAK and TYK2 tyrosine phosphorylation activity is measured using the Z′-LYTE™ Technology developed by Invitrogen Corporation (Carlsbad, Calif.). For JAK1, JAK2 and JAK3 the Z′-LYTE™ Kinase Assay Kit-Tyr6 Peptide (part number PV4122) was used. For TYK2 the Z′-LYTE™ Kinase Assay Kit-Tyr6 Peptide (part number PV3192) was used. The Z′-LYTE™ biochemical assay employs a fluorescence resonance energy transfer (FRET) coupled-enzyme format and is based on the differential sensitivity of phosphorylated and non-phosphorylated peptides to proteolytic cleavage. The assay uses a synthetic peptide substrate that is labeled with a donor fluorophore (coumarin) and an acceptor fluorophore (fluorescein) that make up a FRET pair. In the primary reaction (the Kinase Reaction), the kinase transfers the γ-phosphate of ATP to a single tyrosine residue on the substrate, while the presence of a kinase inhibitor in the primary reaction suppresses phosphorylation. In the secondary reaction (the Development Reaction), a site-specific protease (the Development Reagent) is added. The development buffer quenches the Kinase Reaction, while the protease recognizes and cleaves non-phosphorylated Z′-LYTE™ peptide substrate. Cleavage disrupts FRET between the donor and acceptor fluorophores on the non-phosphorylated substrate, while uncleaved, phosphorylated substrate maintains FRET.
(§2) To test the ability of candidate molecules to inhibit JAK tyrosine phosphorylation activity, molecules are reconstituted in 100% DMSO and serially diluted 1:10 in polypropylene v-bottom microtiter plates. The candidate molecules are then diluted 1:25 into kinase buffer and 2.5 μl transferred into duplicate wells of a 384 well low volume black microtiter assay plate (Corning, USA). The final DMSO concentration in the assay is 1%. The kinase reaction contains 2.5 μl of a candidate molecule, 5 μl of catalytic domain recombinant Kinase enzyme+Tyr peptide substrate (Invitrogen, CA) and ATP (Invitrogen, CA). The kinase reaction is allowed to proceed for 1 hour at room temperature. The protease reaction is initiated by the addition of Development Reagent (Invitrogen, CA). After 1 hour incubation at room temperature the fluorescence is measured using a FlexStation plate reader (Molecular Devices, Sunnyvale, Calif.). The reader settings used are as follows: Fluorescence mode, endpoint, top read, excitation 400 nm, emission 445 nm and 520 nm, Auto Cutoff 435 nm and 515 nm, PMT sensitivity high, 6 reads per well Inhibition of JAK activity is calculated as the percent phosphorylation of substrate in the presence of inhibitor compared to the percent phosphorylation of substrate in the absence of inhibitor. IC50's were derived using Xlfit 4.3 (IDBS, UK), 4 parameter logistic model 205: Y=(A+((B−A)/(1+((C/x)^D)))).

The next assay concerns the target JAK3 (Homo sapiens (Human), UniProt P52333). Nature of the assay: Purified kinase assay (Z'-LYTE), JAK3. The conditions noted are these: Table 1; read-out: JAK3 IC50. Here is the method:
as §1, §2

Another assay concerns the target JAK2 (Homo sapiens (Human), UniProt O60674). Nature of the assay: Purified kinase assay (Z'-LYTE), JAK2. The conditions noted are these: Table 1; read-out: JAK2 IC50. Here is the method:
as §1, §2

JAK2, sequence (O60674 849-1124): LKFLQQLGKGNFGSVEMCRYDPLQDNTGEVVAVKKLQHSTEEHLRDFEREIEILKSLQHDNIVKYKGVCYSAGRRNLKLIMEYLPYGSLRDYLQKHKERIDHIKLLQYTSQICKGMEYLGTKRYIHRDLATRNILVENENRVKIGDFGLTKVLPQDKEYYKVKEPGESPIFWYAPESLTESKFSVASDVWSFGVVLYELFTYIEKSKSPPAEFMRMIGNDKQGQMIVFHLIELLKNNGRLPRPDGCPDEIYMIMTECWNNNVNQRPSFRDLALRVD
JAK3, sequence (P52333 822-1111): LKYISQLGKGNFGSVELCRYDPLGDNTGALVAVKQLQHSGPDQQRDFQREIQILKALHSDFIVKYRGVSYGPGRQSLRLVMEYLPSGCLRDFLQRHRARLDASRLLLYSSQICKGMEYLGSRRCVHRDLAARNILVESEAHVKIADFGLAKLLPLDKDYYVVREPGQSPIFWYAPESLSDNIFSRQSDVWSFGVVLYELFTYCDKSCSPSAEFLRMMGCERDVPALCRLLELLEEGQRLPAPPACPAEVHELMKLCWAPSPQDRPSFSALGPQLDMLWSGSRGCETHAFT
JAK1, sequence (P23458 875-1153): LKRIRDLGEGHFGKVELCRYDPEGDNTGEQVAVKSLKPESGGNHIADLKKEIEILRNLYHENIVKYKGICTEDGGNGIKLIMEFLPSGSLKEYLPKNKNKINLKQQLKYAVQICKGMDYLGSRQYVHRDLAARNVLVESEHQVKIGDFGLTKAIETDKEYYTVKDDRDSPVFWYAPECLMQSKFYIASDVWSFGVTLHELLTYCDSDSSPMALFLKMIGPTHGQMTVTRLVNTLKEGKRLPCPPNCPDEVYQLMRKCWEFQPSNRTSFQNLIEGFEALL

As to `NC(=O)c1nnc(Nc2ccc(N3CCOCC3)cc2)cc1NC1CCC1` [Compound 6, 4-(cyclobutylamino)-6-((4-morpholinophenyl)amino)pyridazine-3-carboxamide], the negative-log IC50 (pIC50) on JAK1 is less than 6.00; at JAK3 it was 6.00 to 7.00; at JAK2, 6.00 to 7.00.

Consider `CC(=O)Nc1cccc(Nc2cc(NC3CCC3)c(C(N)=O)nn2)c1` [Compound 7, 6-((3-acetamidophenyl)amino)-4-(cyclobutylamino)pyridazine-3-carboxamide], for which the pIC50 on JAK1 was less than 6.00; at JAK3, 6.00 to 7.00; at JAK2, 6.00 to 7.00.

With `CC(=O)N1CCN(c2ccc(Nc3cc(NC4CCCCC4)c(C(N)=O)nn3)cc2)CC1` [Compound 8, 6-((4-(4-acetylpiperazin-1-yl)phenyl)amino)-4-(cyclohexylamino)pyridazine-3-carboxamide], the pIC50 at JAK1 was 6.00 to 7.00; on JAK3 it was 7.00 to 8.00; at JAK2, 6.00 to 7.00.

Turning to `CC(=O)N1CCN(c2ccc(Nc3cc(NC(C)C)c(C(N)=O)nn3)cc2)CC1` [Compound 9], the pIC50 at JAK1, on JAK3 and on JAK2 was less than 6.00 throughout.

In the case of `CC(=O)N1CCN(c2ccc(Nc3cc(NC4CCCC4)c(C(N)=O)nn3)cc2)CC1` [Compound 10], the negative logarithm of the IC50 (pIC50) on JAK1, on JAK3 and at JAK2 was 6.00 to 7.00 each time.

For `NC(=O)c1nnc(Nc2ccc(N3CCNCC3)cc2)cc1NC1CCCCC1` [Compound 11, 4-(cyclohexylamino)-6-((4-(piperazin-1-yl)phenyl)amino)pyridazine-3-carboxamide], the pIC50 on JAK1 is less than 6.00; on JAK3 it was 6.00 to 7.00; at JAK2, 6.00 to 7.00.

Regarding `CC(C)Nc1cc(Nc2ccc(N3CCNCC3)cc2)nnc1C(N)=O` [Compound 12], the negative-log IC50 (pIC50) at JAK1, on JAK3 and at JAK2 was less than 6.00 in each case.

For `NC(=O)c1nnc(Nc2ccc(N3CCNCC3)cc2)cc1NC1CCCC1` [Compound 13], the pIC50 at JAK1 is less than 6.00; on JAK3 it was 6.00 to 7.00; on JAK2, 6.00 to 7.00.

As to `CC(=O)N1CCN(c2ccc(Nc3cc(NCC(C)C)c(C(N)=O)nn3)cc2)CC1` [Compound 14], the figures for the pIC50 at JAK1, at JAK3 and on JAK2 were less than 6.00, 6.00 to 7.00 and 6.00 to 7.00, respectively.

As to `CC(C)CNc1cc(Nc2ccc(N3CCNCC3)cc2)nnc1C(N)=O` [Compound 15], the pIC50 was less than 6.00 on JAK1, 6.00 to 7.00 on JAK3 and less than 6.00 at JAK2.

Consider `CC(=O)N1CCN(c2ccc(Nc3cc(NCC4CCC4)c(C(N)=O)nn3)cc2)CC1` [Compound 16], for which the negative-log IC50 (pIC50) was less than 6.00 on JAK1, 7.00 to 8.00 on JAK3 and 6.00 to 7.00 at JAK2.

`NC(=O)c1nnc(Nc2ccc(N3CCNCC3)cc2)cc1NCC1CCC1` [Compound 17]: the pIC50 on JAK1 was less than 6.00; on JAK3, 6.00 to 7.00; at JAK2, less than 6.00.

On to `NC(=O)c1nnc(Nc2ccc(N3CCNCC3)cc2)cc1NCc1cccs1` [Compound 22], for which the values for the pIC50 on JAK1, at JAK3 and on JAK2 were less than 6.00, 7.00 to 8.00 and less than 6.00, respectively.

With `COc1ccccc1CNc1cc(Nc2ccc(N3CCN(C(C)=O)CC3)cc2)nnc1C(N)=O` [Compound 24], the negative logarithm of the IC50 (pIC50) was 6.00 to 7.00 on JAK1, 7.00 to 8.00 at JAK3 and 7.00 to 8.00 at JAK2.

For `CCC(=O)N1CCC(c2ccc(Nc3cc(NCc4ccccc4F)c(C(N)=O)nn3)cc2)CC1` [Compound 25], the pIC50 on JAK1 is less than 6.00; on JAK3 it was 7.00 to 8.00; on JAK2, less than 6.00.

For `CCC(=O)N1CCC(c2ccc(Nc3cc(NCc4cccc(F)c4)c(C(N)=O)nn3)cc2)CC1` [Compound 26], the negative-log IC50 (pIC50) on JAK1 is less than 6.00; at JAK3, 7.00 to 8.00; at JAK2 it was less than 6.00.

Regarding `CCC(=O)N1CCC(c2ccc(Nc3cc(NCc4cc(F)cc(F)c4)c(C(N)=O)nn3)cc2)CC1` [Compound 27], the negative logarithm of the IC50 (pIC50) on JAK1 is less than 6.00; at JAK3, 7.00 to 8.00; at JAK2 it was less than 6.00.

Usually pIC50 stands for −log10 of the IC50, conventionally taken in molar units.
